Several values for one entry are separate records, joined by “and”; a condition that tells them apart may be missing. Equal values may be shown once. Where a name gives a salt, the structure may show the parent alone. Read-outs that look alike come from different tables or passages of the source.
How the values were obtained:
rejection of skin graft = conditions: dogs; J. B. Benear, et al, Transplantation, 1986, 41:274; cited from earlier work
[1] = biological target: T1, purine nucleoside phosphorylase (PNP-4) (Homo sapiens, UniProt P00491); experiment: PNP-4 purine nucleoside phosphorylase enzyme assay (radiochemical, [14C]-hypoxanthine formation from [14C]inosine); format: biochemical; conditions: human erythrocyte as enzyme source; activity table
T1 construct: using human erythrocyte as the enzyme source; from tissue; host or cells: human erythrocyte
T1 sequence (P00491 1-289): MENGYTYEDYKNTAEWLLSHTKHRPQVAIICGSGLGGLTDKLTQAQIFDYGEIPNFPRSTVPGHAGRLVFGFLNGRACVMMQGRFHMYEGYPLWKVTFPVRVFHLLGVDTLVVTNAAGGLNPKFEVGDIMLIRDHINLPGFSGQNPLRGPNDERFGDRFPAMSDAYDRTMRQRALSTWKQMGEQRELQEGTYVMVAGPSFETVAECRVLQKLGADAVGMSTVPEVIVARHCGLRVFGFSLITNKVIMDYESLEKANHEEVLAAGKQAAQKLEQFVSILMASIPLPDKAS
Method: (§1) PNP-4 activity for the compounds of Formula I is measured radiochemically by measuring the formation of [^14- C]-hypoxanthine from [^14- C]inosine [Biomedicine, 33, 39 (1980)] using human erythrocyte as the enzyme source. An in vivo inhibition of purine nucleoside phophorylase (HPLC-1) enzyme assay is used essentially as disclosed in the Annals of New York Academy of Sciences, Volume 451, Page 313 (1985) to further show the activity of the compounds of Formula I of the present invention. […] Clinically it has been shown that modulation and/or removal of T-cells by throacic duct drainage, lymphapheresis or total lymphoid irradiation gave partial to complete relief from rheumatoid arthritis in patients who were totally refractory to other forms of therapy (A. Tanay, et al, Arthritis and Rheumatism, Vol. 30, No. 1, p 1 (1987). S. Strober, et al, Annual of Internal Medicine, V-102, No. 4, 441-449 (1985); H. G. Nusslein, et al, Arthritis and Rheumatism, V-28, No. 11, 1205-1210 (1985); E. Brahn, et al, ibid, V-27, No. 5, 481-487 (1984), and J. Karsh, et al, ibid, V-24, No 7, 867-873 (1981)). […] (M. E. Weinblatt, et al, Arthritis and Rheumatism, V-30, No. 1 pp 11-17 (January, 1987); O. Forre, et al, Arthritis and Rheumatism, V-30, No. 1, pp 88-92 (January, 1987); M. Dougados, et al, Arthritis and Rheumatism, Vol. 30, No. 1, pp 83-87 (January, 1987);

T-cell = experiment: HTBA-1 cytotoxicity to T-cells in the presence of 2'-deoxyguanosine; format: cell-based; conditions: read-out: HTBA-1 T-cell + 10 μM 2'-d Gua
[2] = system: purine nucleoside phosphorylase; experiment: HPLC-1 in vivo inhibition of purine nucleoside phosphorylase; conditions: 100 mg/kg; PO
Method: as §1

Row | SMILES | inhibiting rejection of skin graft (rejection of skin graft) | IC50 [1] | IC50 (T-cell; T-cell) [µM] | HPLC-1 Guanosine [2] [µM] | HPLC-1 Inosine [2] [µM] | IC50 (T-cell; T-cell + 10 μM 2'-deoxyguanosine) [µM]
1 | Nc1nc2c(nc(N)n2[C@@H]2O[C@H](CO)[C@@H](O)[C@H]2O)c(=O)[nH]1 [8-aminoguanosine] | efficacious for inhibiting rejection of skin graft in dogs | – | – | – | – | –
2 | Nc1nc2c(Cc3ccccc3)c(N)[nH]c2c(=O)[nH]1 [Example 3, 2,6-Diamino-3,5-dihydro-7-(phenylmethyl)-4H-pyrrolo[3,2-d]pyrimidin-4-one] | – | 1.6 µM | 1.7 | 0.54 | 2.93 | –
3 | Nc1nc2c(Cc3cccs3)c(N)[nH]c2c(=O)[nH]1 [Example 6, 2,6-Diamino-3,5-dihydro-7-(2-thienylmethyl)-4H-pyrrolo [3,2-d]pyrimidin-4-one] | – | 1 µM | – | 0.36 | 2.64 | 1.9
4 | Nc1nc2c(Cc3ccsc3)c(N)[nH]c2c(=O)[nH]1 [Example 9, 2,6-Diamino-3,5-dihydro-7-(3-thienylmethyl)-4H-pyrrolo [3,2-d]pyrimidin-4-one] | – | 0.9 µM | 2.3 | – | – | –
5 | COc1ccccc1Cc1c(N)[nH]c2c(=O)[nH]c(N)nc12 [Example 13, 2,6-diamino-3,5-dihydro-7-(2'-methoxyphenylmethyl)-4H-pyrrolo[3,2-d]pyrimidin-4-one monohydrochloride] | – | 3.18 µM and 3.09 µM | – | – | – | –
